# From US20060069132A1, “Azolecarboxamide herbicides” (priority 2004, published 2006)
# What was measured:
# giant foxtail = test: Test C pre-/postemergence herbicide test; assay type: in vivo, Setaria faberi; details: for Foxtail, Giant plant response rating: Preemergence, 500 g ai/ha, scale 0 to 100, 0 no effect, 100 complete control
# In short: (§1)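 Preemergence: seeds planted and treated with compound in non-phytotoxic solvent with surfactant; postemergence: plants at 2 to 18 cm (1- to 4-leaf stage) sprayed likewise. Kept in greenhouse 12 to 14 days, then visually rated against controls, 0 (no effect) to 100 (complete control).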
# bermudagrass = test: Test C pre-/postemergence herbicide test; assay type: in vivo, Cynodon dactylon; details: for Bermudagrass plant response rating: Preemergence, 500 g ai/ha
# In short: as §1
# cocklebur = test: Test C pre-/postemergence herbicide test; assay type: in vivo, Xanthium strumarium; details: for Cocklebur plant response rating: Preemergence, 500 g ai/ha, scale 0 to 100, 0 no effect, 100 complete control
# In short: as §1
# morningglory = test: Test C pre-/postemergence herbicide test; assay type: in vivo, Ipomoea coccinea; design: key to Plant response rating, Morningglory: 0 = no effect, 100 = complete control; details: for Morningglory plant response rating: Preemergence, 500 g ai/ha, scale 0 to 100, 0 no effect, 100 complete control
# In short: as §1
# yellow nutsedge = test: Test C pre-/postemergence herbicide test; assay type: in vivo, Cyperus esculentus; details: for Nutsedge, Yellow plant response rating: Preemergence, 500 g ai/ha, scale 0 to 100, 0 no effect, 100 complete control
# In short: as §1
# [1] = test system: common (oilseed) sunflower; test: Test C pre-/postemergence herbicide test; assay type: in vivo, Helianthus annuus; details: for Sunflower plant response rating: Preemergence, 500 g ai/ha, scale 0 to 100, 0 no effect, 100 complete control
# In short: as §1
# pigweed = test: Test C pre-/postemergence herbicide test; assay type: in vivo, Amaranthus retroflexus; details: for Pigweed plant response rating: Preemergence, 500 g ai/ha, scale 0 to 100, 0 no effect, 100 complete control
# In short: as §1
# velvetleaf = test: Test C pre-/postemergence herbicide test; assay type: in vivo, Abutilon theophrasti; details: for Plant response rating, Velvetleaf: preemergence; for Velvetleaf plant response rating: Preemergence, 500 g ai/ha, scale 0 to 100, 0 no effect, 100 complete control
# In short: as §1
# rice = test: Test B pre-/postemergence herbicide test; assay type: in vivo, Oryza sativa; details: preemergence
# In short: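 Plants compared with untreated controls 13–15 days post-treatment and given a visual 0–100 injury score. Applications: preemergence to seeds; postemergence at 1- to 4-leaf (2–18 cm); paddy species flooded, 2-leaf stage. Vehicle non-phytotoxic, surfactant included.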
# soybean = test: Test C pre-/postemergence herbicide test; assay type: in vivo, Glycine max; details: for Plant response rating, Soybean: preemergence; for Soybean plant response rating: Preemergence, 500 g ai/ha, scale 0 to 100, 0 no effect, 100 complete control
# In short: as §1
# [2] = 125 g ai/ha, scale 0 (no effect) to 100 (complete control), visual, 12 to 14 days, preemergence
# [3] = 250 g ai/ha, scale 0 to 100 (0 no effect, 100 complete control), visual, 12 to 14 days, preemergence
# [4] = scale 0 to 100, 0 no effect, 100 complete control
# [5] = 125 g ai/ha, scale 0 (no effect) to 100 (complete control), visual, 12 to 14 days
# [6] = 500 g ai/ha, visual rating 0-100, 0 no effect, 100 complete control
# [7] = 125 g ai/ha, 0 to 100 scale, 0 is no effect, 100 is complete control
# [8] = 62 g ai/ha, preemergence, scale 0 to 100
SMILES,"Plant response rating, Foxtail, Giant (giant foxtail; [2])","Plant response rating, Foxtail, Giant (giant foxtail; [3])","Foxtail, Giant plant response rating (giant foxtail)","Plant response rating, Bermudagrass (bermudagrass; [2])","Plant response rating, Bermudagrass (bermudagrass; [3])",Bermudagrass plant response rating (bermudagrass; [4]),"Plant response rating, Cocklebur (cocklebur; [2])","Plant response rating, Cocklebur (cocklebur; [3])",Cocklebur plant response rating (cocklebur),"Plant response rating, Morningglory (morningglory; [2])",Morningglory plant response rating (morningglory),"Plant response rating, Nutsedge, Yellow (yellow nutsedge; [2])","Nutsedge, Yellow plant response rating (yellow nutsedge)","Plant response rating, Sunflower [1, 2]",Sunflower plant response rating [1],"Plant response rating, Pigweed (pigweed; [2])",Pigweed plant response rating (pigweed),"Plant response rating, Velvetleaf (velvetleaf; [5])",Velvetleaf plant response rating (velvetleaf),"Plant response rating, Rice (rice; [6])",also measured
CCN(CC)C(=O)c1cccc(NC(=O)c2cc(C(C)(C)C)nn2CC)n1 [Compound 145],0,50,70,60,80,90,0,0,0,0,30,0,0,0,30,90,95,20,100,20,"Plant response rating (0 = no effect, 100 = complete control), Foxtail, Giant (giant foxtail; 62 g ai/ha, preemergence): 0; Plant response rating (0 = no effect, 100 = complete control), Bermudagrass (bermudagrass; 62 g ai/ha, preemergence): 20; Plant response rating (0 = no effect, 100 = complete control), Cocklebur (cocklebur; 62 g ai/ha, preemergence): 0; Plant response rating (0 = no effect, 100 = complete control), Morningglory (morningglory; 62 g ai/ha, preemergence): 0; Plant response rating (0 = no effect, 100 = complete control), Nutsedge, Yellow (yellow nutsedge; 62 g ai/ha, preemergence): 0; Plant response rating (0 = no effect, 100 = complete control), Sunflower ([1]; 62 g ai/ha, preemergence): 0; Plant response rating (0 = no effect, 100 = complete control), Pigweed (pigweed; 62 g ai/ha, preemergence): 85; Plant response rating, Rice (rice; [7]): 0; Plant response rating, Soybean (soybean; [5]): 10; Soybean plant response rating (soybean): 60"
CCNC(=O)c1cc(C)nc(NC(=O)c2cc(C(C)(C)C)nn2CC)c1 [Compound 149],50,60,100,90,90,95,0,0,0,5,60,0,0,0,0,100,100,0,60,30,"Plant response rating, Foxtail, Giant (giant foxtail; [8]): 0; Plant response rating, Bermudagrass (bermudagrass; 62 g ai/ha, preemergence, scale 0 to 100, 0 no effect, 100 complete control): 30; Plant response rating, Cocklebur (cocklebur; [8]): 0; Plant response rating, Morningglory (morningglory; [8]): 0; Plant response rating, Nutsedge, Yellow (yellow nutsedge; [8]): 0; Plant response rating, Sunflower [1, 8]: 0; Plant response rating, Pigweed (pigweed; [8]): 20; Plant response rating, Velvetleaf (velvetleaf; 62 g ai/ha, scale 0 to 100): 0; Plant response rating, Rice (rice; [7]): 20; Plant response rating, Soybean (soybean; 62 g ai/ha, scale 0 to 100): 0; Plant response rating, Soybean (soybean; [5]): 0; Soybean plant response rating (soybean): 0"
